Among the data in patent US10562908B2, “Ortho substituted phenylpyrazolo- and phenylpyrrolo-pyridazine derivatives having multimodal activity against pain” (priority 2016, dated 2020) are Ki values, retold here.

Test [1] addresses T1, human μ-opioid receptor (Homo sapiens, UniProt P35372).
T1 construct: expressed in transfected cells; host or cells: CHO-K1
The experiment in a line: Human μ-opioid receptor radioligand assay ([3H]-DAMGO). Type of test: binding. The protocol:
Human μ-Opioid Receptor Radioligand Assay
To investigate binding properties of test compounds to human μ-opioid receptor, transfected CHO-K1 cell membranes and [^3H]-DAMGO (Perkin Elmer, ES-542-C), as the radioligand, were used. The assay was carried out with 20 μg of membrane suspension, 1 nM of [^3H]-DAMGO in either absence or presence of either buffer or 10 μM Naloxone for total and non-specific binding, respectively. Binding buffer contained Tris-HCl 50 mM, MgCl2 5 mM at pH 7.4. Plates were incubated at 27° C. for 60 minutes. After the incubation period, the reaction mix was then transferred to MultiScreen HTS, FC plates (Millipore), filtered and plates were washed 3 times with ice-cold 10 mM Tris-HCL (pH 7.4). Filters were dried and counted at approximately 40% efficiency in a MicroBeta scintillation counter (Perkin-Elmer) using EcoScint liquid scintillation cocktail, preferably, transfected CHO-K1 cell membranes (20 μg) were incubated with 1 nM of [^3H]-DAMGO in assay buffer containing Tris-HCl 50 mM, MgCl2 5 mM at pH 7.4. NBS (non-specific binding) was measured by adding 10 μM Naloxone. The binding of the test compound was measured at five different concentrations. Plates were incubated at 27° C. for 60 minutes. After the incubation period, the reaction mix was then transferred to MultiScreen HTS, FC plates (Millipore), filtered and plates were washed 3 times with ice-cold 10 mM Tris-HCL (pH 7.4). Filters were dried and counted at approximately 40% efficiency in a MicroBeta scintillation counter (Perkin-Elmer) using EcoScint liquid scintillation cocktail.

Test [2] deals with Human α2δ-1 subunit of Cav2.2 calcium channel (Homo sapiens, UniProt P54289). In words: Human α2δ-1 subunit of Cav2.2 calcium channel assay ([3H]-Gabapentin). Type of test: binding. On the procedure: Human α2δ-1 Subunit of Cav2.2 Calcium Channel Assay
Chain of Human α2δ-1 subunit of Cav2.2 calcium channel (P54289 25-1103): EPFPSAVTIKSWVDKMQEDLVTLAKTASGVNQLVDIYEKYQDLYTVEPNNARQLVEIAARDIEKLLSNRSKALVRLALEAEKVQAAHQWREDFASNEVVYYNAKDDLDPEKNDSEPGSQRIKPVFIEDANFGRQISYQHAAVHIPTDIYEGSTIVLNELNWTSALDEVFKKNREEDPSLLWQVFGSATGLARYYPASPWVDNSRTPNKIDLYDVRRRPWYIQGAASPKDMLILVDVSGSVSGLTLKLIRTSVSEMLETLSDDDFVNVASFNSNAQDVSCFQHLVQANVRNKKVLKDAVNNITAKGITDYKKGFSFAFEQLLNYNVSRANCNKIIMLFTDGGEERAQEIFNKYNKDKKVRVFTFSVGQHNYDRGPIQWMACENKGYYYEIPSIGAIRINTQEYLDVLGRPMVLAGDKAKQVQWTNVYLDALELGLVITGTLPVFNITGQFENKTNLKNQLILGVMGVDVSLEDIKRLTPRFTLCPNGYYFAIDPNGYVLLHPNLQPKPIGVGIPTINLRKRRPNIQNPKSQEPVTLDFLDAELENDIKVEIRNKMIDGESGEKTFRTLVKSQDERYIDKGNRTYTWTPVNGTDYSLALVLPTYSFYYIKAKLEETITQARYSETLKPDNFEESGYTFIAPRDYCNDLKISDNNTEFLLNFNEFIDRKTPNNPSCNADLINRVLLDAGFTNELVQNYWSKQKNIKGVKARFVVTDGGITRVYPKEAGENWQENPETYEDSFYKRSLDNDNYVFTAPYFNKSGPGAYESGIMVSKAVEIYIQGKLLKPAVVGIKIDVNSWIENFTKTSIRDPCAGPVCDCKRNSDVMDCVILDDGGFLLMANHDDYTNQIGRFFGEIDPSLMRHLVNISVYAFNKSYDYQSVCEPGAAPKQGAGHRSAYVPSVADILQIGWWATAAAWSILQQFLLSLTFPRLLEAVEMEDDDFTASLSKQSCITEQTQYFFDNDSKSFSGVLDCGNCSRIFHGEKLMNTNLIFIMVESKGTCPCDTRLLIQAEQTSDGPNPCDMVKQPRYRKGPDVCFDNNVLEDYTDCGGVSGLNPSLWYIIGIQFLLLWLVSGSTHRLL
Human α2δ-1 enriched membranes (2.5 μg) were incubated with 15 nM of radiolabeled [3H]-Gabapentin in assay buffer containing Hepes-KOH 10 mM, pH 7.4. NSB (non specific binding) was measured by adding 10 μM pregabalin. After 60 min incubation at 27° C., binding reaction was terminated by filtering through Multiscreen GF/C (Millipore) presoaked in 0.5% polyethyleneimine in Vacuum Manifold Station, followed by 3 washes with ice-cold filtration buffer containing 50 mM Tris-HCl, pH 7.4. Filter plates were dried at 60° C. for 1 hour and 30 μl of scintillation cocktail were added to each well before radioactivity reading. Readings were performed in a Trilux 1450 Microbeta radioactive counter (Perkin Elmer), i.e. Human α2δ-1 enriched membranes (2.5 μg) were incubated with 15 nM of radiolabeled [3H]-Gabapentin in assay buffer containing Hepes-KOH 10 mM, pH 7.4. NSB (non specific binding) was measured by adding 10 μM pregabalin. The binding of the test compound was measured at five different concentrations. After 60 min incubation at 27° C., binding reaction was terminated by filtering through Multiscreen GF/C (Millipore) presoaked in 0.5% polyethyleneimine in Vacuum Manifold Station, followed by 3 washes with ice-cold filtration buffer containing 50 mM Tris-HCl, pH 7.4. Filter plates were dried at 60° C. for 1 hour and 30 μl of scintillation cocktail were added to each well before radioactivity reading. Readings were performed in a Trilux 1450 Microbeta radioactive counter (Perkin Elmer).

Where [3] appears, read: transfected CHO-K1 cell membranes, 1 nM [3H]-DAMGO, read-out: Binding μ (Ki).
Where [4] appears, read: human α2δ-1 enriched membranes, 15 nM [3H]-Gabapentin, read-out: Binding α2δ-1 (Ki).

Where two headings read alike, the source gives them in different places.

T1 sequence (P35372 whole entry): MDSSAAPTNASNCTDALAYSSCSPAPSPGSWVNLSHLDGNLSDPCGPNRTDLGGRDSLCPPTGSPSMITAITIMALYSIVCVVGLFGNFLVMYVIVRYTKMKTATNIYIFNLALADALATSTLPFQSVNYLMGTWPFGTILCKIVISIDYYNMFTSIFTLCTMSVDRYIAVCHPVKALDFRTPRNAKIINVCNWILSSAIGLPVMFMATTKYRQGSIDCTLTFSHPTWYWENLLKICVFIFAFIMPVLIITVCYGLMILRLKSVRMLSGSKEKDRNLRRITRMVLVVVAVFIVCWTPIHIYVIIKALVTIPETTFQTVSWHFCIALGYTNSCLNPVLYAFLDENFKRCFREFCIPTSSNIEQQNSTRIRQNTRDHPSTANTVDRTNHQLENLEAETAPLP

A word on the Ki: it is the equilibrium dissociation constant of an inhibitor or competing ligand from its target. For `CNCCC(Oc1ccccc1-n1nc2c(N(C)C)nnc(C)c2c1C)c1cc(F)cc(F)c1` (stereo not shown) [Example 48, 2-(2-(1-(3,5-difluorophenyl)-3-(methylamino)propoxy)phenyl)-N,N,3,4-tetramethyl-2H-pyrazolo[3,4-d]pyridazin-7-amine], the figures for the Ki in test [1] (setting [3]) and in test [2] (setting [4]) were more than 500 nM and 0.5 to 5 µM, respectively.

As for `Cc1nnc(N(C)C)c2nn(-c3ccccc3O[C@H](c3ccccc3)[C@@H]3CNCCO3)c(C)c12` [Example 49, N,N,3,4-tetramethyl-2-(2-((R)-((S)-morpholin-2-yl)(phenyl)methoxy)phenyl)-2H-pyrazolo[3,4-d]pyridazin-7-amine], the Ki in test [1] (setting [3]) was more than 500 nM; in test [2] (setting [4]) it was 0.5 to 5 µM.

Turning to `Cc1nnc(N(C)C)c2nn(-c3ccccc3OC3CCNC3)c(C)c12` (stereo not shown) [Example 50, N,N,3,4-Tetramethyl-2-(2-(pyrrolidin-3-yloxy)phenyl)-2H-pyrazolo[3,4-d]pyridazin-7-amine], the Ki in test [1] (setting [3]) is more than 500 nM; in test [2] (setting [4]), more than 5 µM.

Take `CNCCC(COC)Oc1ccccc1-n1nc2c(N(C)C)nnc(C)c2c1C` (stereo not shown) [Example 51, 2-(2-((1-methoxy-4-(methylamino)butan-2-yl)oxy)phenyl)-N,N,3,4-tetramethyl-2H-pyrazolo[3,4-d]pyridazin-7-amine]: the Ki in test [1] (setting [3]) was more than 500 nM; in test [2] (setting [4]), more than 5 µM.

As to `Cc1nnc(N(C)C)c2nn(-c3ccccc3OC(CCN(C)C)c3ccccc3)c(C)c12` (stereo not shown) [Example 52, 2-(2-(3-(Dimethylamino)-1-phenylpropoxy)phenyl)-N,N,3,4-tetramethyl-2H-pyrazolo[3,4-d]pyridazin-7-amine], the Ki fell in the range of 100 to 500 nM in test [1] and 0.5 to 5 µM in test [2].

As to `Cc1nnc(N(C)C)c2nn(-c3ccccc3OC3CCN(C)C3)c(C)c12` (stereo not shown) [Example 53, N,N,3,4-tetramethyl-2-(2-((1-methylpyrrolidin-3-yl)oxy)phenyl)-2H-pyrazolo[3,4-d]pyridazin-7-amine], the Ki is more than 500 nM in test [1] (setting [3]) and more than 5 µM in test [2] (setting [4]).

With `Cc1nnc(N(C)C)c2nn(-c3ccccc3OC(c3ccccc3)C3CCN(C)CC3)c(C)c12` (stereo not shown) [Example 54, N,N,3,4-tetramethyl-2-(2-((1-methylpiperidin-4-yl)(phenyl)methoxy)phenyl)-2H-pyrazolo[3,4-d]pyridazin-7-amine], the inhibition constant Ki in test [1] (setting [3]) was more than 500 nM; in test [2] (setting [4]), more than 5 µM.

Turning to `Cc1nnc(N(C)C)c2nn(-c3ccccc3OC3CCN(CCc4ccccc4)C3)c(C)c12` (stereo not shown) [Example 55, N,N,3,4-tetramethyl-2-(2-((1-phenethylpyrrolidin-3-yl)oxy)phenyl)-2H-pyrazolo[3,4-d]pyridazin-7-amine], the Ki fell in the range of 100 to 500 nM in test [1] and 0.5 to 5 µM in test [2].

Turning to `Cc1nnc(N(C)C)c2nn(-c3ccccc3OC(CCNCC(F)F)c3ccccc3)c(C)c12` (stereo not shown) [Example 56, 2-(2-(3-((2,2-difluoroethyl)amino)-1-phenylpropoxy)phenyl)-N,N,3,4-tetramethyl-2H-pyrazolo[3,4-d]pyridazin-7-amine], the figures for the Ki in test [1] and in test [2] were 100 to 500 nM and 0.5 to 5 µM, respectively.

`Cc1nnc(N(C)C)c2nn(-c3ccccc3OCC3CCN(Cc4ccccc4)CC3)c(C)c12` [Example 57, 2-(2-((1-benzylpiperidin-4-yl)methoxy)phenyl)-N,N,3,4-tetramethyl-2H-pyrazolo[3,4-c]pyridazin-7-amine]: the figures for the Ki in test [1] (setting [3]) and in test [2] (setting [4]) were more than 500 nM and more than 5 µM, respectively.

With `Cc1nnc(N(C)C)c2nn(-c3ccccc3OCC3CCN(CCc4ccccc4)CC3)c(C)c12` [Example 58, N,N,3,4-tetramethyl-2-(2-((1-phenethylpiperidin-4-yl)methoxy)phenyl)-2H-pyrazolo[3,4-d]pyridazin-7-amine], the Ki was less than 100 nM in test [1] and more than 5 µM in test [2].

Take `CNCCC(Oc1ccccc1-n1nc2c(N(C)CCO)nnc(C)c2c1C)c1ccccc1` (stereo not shown) [Example 59, 2-((3,4-Dimethyl-2-(2-(3-(methylamino)-1-phenylpropoxy)phenyl)-2H-pyrazolo[3,4-d]pyridazin-7-yl)(methyl)amino)etanol]: the values for the Ki in test [1] (setting [3]) and in test [2] (setting [4]) were more than 500 nM and 0.5 to 5 µM, respectively.

With `CNCCC(Oc1ccccc1-n1nc2c(N(C)CCOC)nnc(C)c2c1C)c1ccccc1` (stereo not shown) [Example 60, N-(2-methoxyethyl)-N,3,4-trimethyl-2-(2-(3-(methylamino)-1-phenylpropoxy)phenyl)-2H-pyrazolo[3,4-d]pyridazin-7-amine], the Ki in test [1] (setting [3]) was more than 500 nM; in test [2] (setting [4]), 0.5 to 5 µM.

With `CNCCC(Oc1ccccc1-n1nc2c(N(C)CCCO)nnc(C)c2c1C)c1ccccc1` (stereo not shown) [Example 61, 3-((3,4-dimethyl-2-(2-(3-(methylamino)-1-phenylpropoxy)phenyl)-2H-pyrazolo[3,4-d]pyridazin-7-yl)(methyl)amino)propan-1-ol], the Ki in test [1] (setting [3]) was more than 500 nM; in test [2] (setting [4]), 0.5 to 5 µM.

On to `CNCCC(Oc1ccccc1-n1nc2c(N(C)CCN(C)C)nnc(C)c2c1C)c1ccccc1` (stereo not shown) [Example 62, N1-(3,4-dimethyl-2-(2-(3-(methylamino)-1-phenylpropoxy)phenyl)-2H-pyrazolo[3,4-d]pyridazin-7-yl)-N1,N2,N2-trimethylethane-1,2-diamine], for which the Ki is more than 500 nM in test [1] (setting [3]) and 0.5 to 5 µM in test [2] (setting [4]).

For `CNCCC(Oc1ccccc1-n1nc2c(CC#N)nnc(C)c2c1C)c1ccccc1` (stereo not shown) [Example 63, 2-(3,4-Dimethyl-2-(2-(3-(methylamino)-1-phenylpropoxy)phenyl)-2H-pyrazolo[3,4-d]pyridazin-7-yl)acetonitrile], the Ki in test [1] (setting [3]) was more than 500 nM; in test [2] (setting [4]), more than 5 µM.

In the case of `CNCCC(Oc1ccccc1-n1nc2c(Cc3noc(C)n3)nnc(C)c2c1C)c1ccccc1` (stereo not shown) [Example 64, 3-(2-(3,4-Dimethyl-7-((5-methyl-1,2,4-oxadiazol-3-yl)methyl)-2H-pyrazolo[3,4-d]pyridazin-2-yl)phenoxy)-N-methyl-3-phenylpropan-1-amine], the Ki was more than 500 nM in test [1] (setting [3]) and more than 5 µM in test [2] (setting [4]).

With `CNCCC(Oc1ccccc1-n1c(C)c2c(C)nnc(C)c2c1C)c1ccccc1` (stereo not shown) [Example 65, N-Methyl-3-phenyl-3-(2-(1,4,5,7-tetramethyl-6H-pyrrolo[3,4-d]pyridazin-6-yl)phenoxy)propan-1-amine], the inhibition constant (Ki) in test [1] is 100 to 500 nM; in test [2], 0.5 to 5 µM.

Consider `CNCCC(Oc1ccccc1-n1nc2cnnc(C)c2c1C)c1ccccc1` (stereo not shown) [Example 66, 3-(2-(3,4-Dimethyl-2H-pyrazolo[3,4-d]pyridazin-2-yl)phenoxy)-N-methyl-3-phenylpropan-1-amine], for which the inhibitory constant (Ki) is more than 500 nM in test [1] (setting [3]) and more than 5 µM in test [2] (setting [4]).

With `CNCC(Oc1ccccc1-n1nc2c(N(C)C)nnc(C)c2c1C)c1ccccc1` (stereo not shown) [Example 67, N,N,3,4-Tetramethyl-2-(2-(2-(methylamino)-1-phenylethoxy)phenyl)-2H-pyrazolo[3,4-d]pyridazin-7-amine], the Ki was more than 500 nM in test [1] (setting [3]) and 0.5 to 5 µM in test [2] (setting [4]).

For the compound `CNCCC(Oc1ccccc1-n1nc2c(NC)nnc(C)c2c1C)c1ccccc1` (stereo not shown) [Example 68, N,3,4-Trimethyl-2-(2-(3-(methylamino)-1-phenylpropoxy)phenyl)-2H-pyrazolo[3,4-d]pyridazin-7-amine], the Ki is more than 500 nM in test [1] (setting [3]) and 0.5 to 5 µM in test [2] (setting [4]).

Consider `CNCCC(Oc1ccccc1-n1nc2c(C)nnc(C)c2c1C)c1ccccc1` (stereo not shown) [Example 69, N-methyl-3-phenyl-3-(2-(3,4,7-trimethyl-2H-pyrazolo[3,4-d]pyridazin-2-yl)phenoxy)propan-1-amine], for which the Ki in test [1] (setting [3]) was more than 500 nM; in test [2] (setting [4]), more than 5 µM.

Turning to `CNCCC(Oc1ccccc1-n1nc2c(C(C)C)nnc(C)c2c1C)c1ccccc1` (stereo not shown) [Example 70, 3-(2-(7-isopropyl-3,4-dimethyl-2H-pyrazolo[3,4-d]pyridazin-2-yl)phenoxy)-N-methyl-3-phenylpropan-1-amine], the figures for the Ki in test [1] (setting [3]) and in test [2] (setting [4]) were more than 500 nM and more than 5 µM, respectively.
